Laboratory results reported in ChEMBL document CHEMBL1136359, “11,12-epoxyeicosatrienoic acid (11,12-EET): structural determinants for inhibition of TNF-alpha-induced VCAM-1 expression” (Bioorg Med Chem Lett, 2003).

tested on: HSVEC; test: (§1) Inhibitory activity against tumor necrosis factor-alpha (TNF-alpha) induced vascular cell adhesion molecule-1 (VCAM-1) in human endothelial cells; type: functional

SMILES	Inhibition [%]
CCCCCCCCCOCC/C=C\CCCCCCC(=O)NS(C)(=O)=O	1
CCCCCCCCC1SC1C/C=C\CCCCCCC(=O)O (stereo in doubt; 15)	49
CCCCCCCCC1OC1C/C=C\CCCCOCC(=O)O (centres undefined)	3
O=C(O)CCCCCC/C=C\CCOCCCCCCCCCOc1ccc(I)cc1	52
CCCCCCCCC1OC1C/C=C\CCCCCCC(=O)O (stereo in doubt; 11)	58
CC(=O)NCCCCCCCCCOCC/C=C\CCCCCCC(=O)O	63
CCCCCCCCC1OC1C/C=C\CCCCCCC(=O)NS(C)(=O)=O (stereo in doubt; 29)	29
CCCCC/C=C\CC1OC1C/C=C\CCCCCCC(=O)O (centres undefined)	10
CCCCCCCCC1OC1C/C=C\CCCCCCC(=O)NS(=O)(=O)c1ccccc1 (centres undefined)	33
O=C(O)CCCCCC/C=C\CCOCCCCCCCCCO	27
CCCCCCCCC1CC1C/C=C\CCCCCCC(=O)O (centres undefined)	31
CCCCCCCCC1SC1C/C=C\CCCCCCC(=O)O (stereo in doubt; 16)	26
CCCCCCCCc1cocc1C/C=C\CCCCCCC(=O)O	50
CCCCC/C=C\CC1OC1CCCC/C=C\CCCC(=O)O (centres undefined)	30
CCCCCCCCC1OC1C/C=C\CCCCCCCO (centres undefined)	32
CCCCCCCCC1OC1C/C=C\CCCCCCC(=O)O (stereo in doubt; 9)	69

SMILES	Inhibition [%]
CCCCC/C=C\CC1OC1C/C=C\C/C=C\CCCC(=O)O (centres undefined)	39
O=C(O)CCCCCC/C=C\CC1OC1CCCCCCCCO (centres undefined)	36
CCCCCCCCC1OC1CC/C=C\CCCCCC(=O)O (centres undefined)	13
CCCCCCCCC1OC1CCCC/C=C\CCCC(=O)O (centres undefined)	31
CCCCCCCCC1OC1CCCCCCCCCC(=O)O (centres undefined)	36
CCCCC/C=C\C[C@@H]1O[C@@H]1C/C=C\C/C=C\CCCC(=O)O	35
CCCCCCCCCCC1OC1C/C=C\CCCCCCC(=O)O (centres undefined)	-1
CCCCC/C=C\C[C@H]1O[C@H]1C/C=C\C/C=C\CCCC(=O)O	31
CCCCC/C=C\CC1SC1C/C=C\C/C=C\CCCC(=O)O (centres undefined)	65
CCCCCCCC[C@@H]1O[C@@H]1C/C=C\CCCCC(=O)O	17
CCCCCCCCC1OC1CC#CCCCCCCC(=O)O (centres undefined)	28
CCCCCCCCC1OC1C/C=C\CCCCCCC(=O)O (stereo in doubt; 21)	1
CCCCCCCCC1OC1C/C=C\CCCCCCC(=O)NS(C)(=O)=O (stereo in doubt; 30)	31
CCCCCCCCCOCC/C=C\CCCCCCC(=O)O	48
CCCCC/C=C\CC1OC1CCCCCCCCCC(=O)O (centres undefined)	13
CCCCCCCC[C@H]1O[C@H]1C/C=C\CCCCC(=O)O	13

tested on: HSVEC; test: as §1; type: functional, cell-based

SMILES	IC50 [nM]
CCCCCCCCC1OC1C/C=C\CCCCCCC(=O)O (stereo in doubt; 9)	60
CCCCCCCCCOCC/C=C\CCCCCCC(=O)O	45
